In brackets after ≈: the same amount, converted by molar mass. Where only a bound is given, the exact number is not on record here.

In the first assay the test system is Bacillus subtilis. Nature of the assay: Antibacterial activity against Bacillus subtilis ATCC 11774 measured after 24 hrs. As to conditions: ATCC 11774, 24 h. The assay is classed as functional.
In general, IC50 refers to the midpoint of a concentration-inhibition curve. A higher IC50 goes with weaker potency. With `CCCCCCCC(=O)c1c(O)cc(CCCCCCC)oc1=O`, the IC50 was 27 µg/mL (≈ 80.2 µM).
`CCCCc1c(O)cc(CCC)oc1=O` registered an IC50 of 46 µg/mL (≈ 219 µM).
The same measure, in the same setting: as for `CCCCC(=O)c1c(O)cc(CCCC)oc1=O`, the figure is 227 µg/mL (≈ 900 µM).
On to `CCCCCCCc1c(O)cc(CCCCCC)oc1=O`, for which the IC50 is 0.7 µg/mL (≈ 2.38 µM).
Turning to `CCc1c(O)cc(C)oc1=O`, the IC50 is greater than 1000 µg/mL.
Consider `CCCC(=O)c1c(O)cc(CCC)oc1=O`, for which the IC50 was 1000 µg/mL (≈ 4460 µM).
Turning to `CCCCCc1c(O)cc(CCCC)oc1=O`, half-maximal inhibition (IC50) was put at 23 µg/mL (≈ 96.5 µM).
Molecule `CCCCCCCCc1c(O)cc(CCCCCCC)oc1=O` had an IC50 of 24 µg/mL (≈ 74.4 µM).
Same read-out and setting: as for `CCCc1c(O)cc(CC)oc1=O`, the figure is 203 µg/mL (≈ 1110 µM).
Turning to `CCCCCCCCCc1c(O)cc(CCCCCCCC)oc1=O`, the IC50 was greater than 1000 µg/mL.
`CCC(=O)c1c(O)cc(CC)oc1=O` yielded an IC50 greater than 1000 µg/mL.
On the same count and under the same terms, as for `CCCCCCC(=O)c1c(O)cc(CCCCCC)oc1=O`, the figure is 3.5 µg/mL (≈ 11.3 µM); as for `CCCCCCc1c(O)cc(CCCCC)oc1=O`, 3.3 µg/mL (≈ 12.4 µM).
The same measure, in the same setting: as for `CCCCCCCCC(=O)c1c(O)cc(CCCCCCCC)oc1=O`, the figure is greater than 1000 µg/mL; as for `CCCCCC(=O)c1c(O)cc(CCCCC)oc1=O`, 21 µg/mL (≈ 74.9 µM).
Consider `CCCCCCCc1cc(O)c(CCCCCC)c(=O)o1` [PSEUDOPYRONINES B], for which the IC50 was determined as 0.3 µg/mL (≈ 1.02 µM).

Another assay relates to Escherichia coli. Nature of the assay: Antibacterial activity against Escherichia coli ATCC 15022 measured after 24 hrs. In kind it is functional. As to conditions: ATCC 15022, 24 h.
Regarding `CCCCCCCC(=O)c1c(O)cc(CCCCCCC)oc1=O`, the IC50 was greater than 1000 µg/mL.
The molecule `CCCCc1c(O)cc(CCC)oc1=O` registered an IC50 greater than 1000 µg/mL.
The molecule `CCCCC(=O)c1c(O)cc(CCCC)oc1=O` yielded an IC50 of 223 µg/mL (≈ 884 µM).
For `CCCCCCCc1c(O)cc(CCCCCC)oc1=O`, the IC50 is greater than 1000 µg/mL.
In turn, `CCc1c(O)cc(C)oc1=O` displayed an IC50 of 300 µg/mL (≈ 1950 µM).
`CCCC(=O)c1c(O)cc(CCC)oc1=O` came in with an IC50 of 248 µg/mL (≈ 1110 µM).
`CCCCCc1c(O)cc(CCCC)oc1=O` came in with an IC50 greater than 1000 µg/mL.
`CCCCCCCCc1c(O)cc(CCCCCCC)oc1=O` registered an IC50 greater than 1000 µg/mL.
Still for that read-out and setting: for `CCCc1c(O)cc(CC)oc1=O` the value was 278 µg/mL (≈ 1530 µM); for `CCCCCCCCCc1c(O)cc(CCCCCCCC)oc1=O`, greater than 1000 µg/mL; for `CCC(=O)c1c(O)cc(CC)oc1=O`, 257 µg/mL (≈ 1310 µM).
For the molecule `CCCCCCC(=O)c1c(O)cc(CCCCCC)oc1=O`, the IC50 was greater than 1000 µg/mL.
With `CCCCCCc1c(O)cc(CCCCC)oc1=O`, the IC50 was greater than 1000 µg/mL.
Still for that read-out and setting: as for `CCCCCCCCC(=O)c1c(O)cc(CCCCCCCC)oc1=O`, the figure is greater than 1000 µg/mL; as for `CCCCCC(=O)c1c(O)cc(CCCCC)oc1=O`, greater than 1000 µg/mL; as for `CCCCCCCc1cc(O)c(CCCCCC)c(=O)o1` [PSEUDOPYRONINES B], greater than 1000 µg/mL.

For a further assay, the system named is Pseudomonas aeruginosa. Kind of assay: Antibacterial activity against Pseudomonas aeruginosa ATCC 9027 measured after 24 hrs. The assay is classed as functional. As to conditions: ATCC 9027, 24 h.
`CCCCCCCC(=O)c1c(O)cc(CCCCCCC)oc1=O` yielded an IC50 greater than 1000 µg/mL.
The same measure, in the same setting: for `CCCCc1c(O)cc(CCC)oc1=O` the value was greater than 1000 µg/mL.
Regarding `CCCCC(=O)c1c(O)cc(CCCC)oc1=O`, the IC50 was greater than 1000 µg/mL.
The same measure, in the same setting: as for `CCCCCCCc1c(O)cc(CCCCCC)oc1=O`, the figure is greater than 1000 µg/mL.
Same read-out and setting: for `CCc1c(O)cc(C)oc1=O` the value was greater than 1000 µg/mL; for `CCCC(=O)c1c(O)cc(CCC)oc1=O`, greater than 1000 µg/mL; for `CCCCCc1c(O)cc(CCCC)oc1=O`, greater than 1000 µg/mL.
The same measure, in the same setting: as for `CCCCCCCCc1c(O)cc(CCCCCCC)oc1=O`, the figure is greater than 1000 µg/mL; as for `CCCc1c(O)cc(CC)oc1=O`, greater than 1000 µg/mL.
`CCCCCCCCCc1c(O)cc(CCCCCCCC)oc1=O` returned an IC50 greater than 1000 µg/mL.
Molecule `CCC(=O)c1c(O)cc(CC)oc1=O` returned a 50% inhibitory concentration (IC50) greater than 1000 µg/mL.
In turn, `CCCCCCC(=O)c1c(O)cc(CCCCCC)oc1=O` had an IC50 greater than 1000 µg/mL.
On to `CCCCCCc1c(O)cc(CCCCC)oc1=O`, for which the IC50 is greater than 1000 µg/mL.
Molecule `CCCCCCCCC(=O)c1c(O)cc(CCCCCCCC)oc1=O` showed an IC50 greater than 1000 µg/mL.
`CCCCCC(=O)c1c(O)cc(CCCCC)oc1=O` came in with an IC50 greater than 1000 µg/mL.
In the case of `CCCCCCCc1cc(O)c(CCCCCC)c(=O)o1` [PSEUDOPYRONINES B], the IC50 was greater than 1000 µg/mL.

In a further assay the test system is Staphylococcus aureus. Nature of the assay: Antibacterial activity against Staphylococcus aureus ATCC 29213 measured after 24 hrs. The assay is classed as functional. As to conditions: ATCC 29213, 24 h.
`CCCCCCCC(=O)c1c(O)cc(CCCCCCC)oc1=O` displayed an IC50 of 48 µg/mL (≈ 143 µM).
`CCCCc1c(O)cc(CCC)oc1=O` showed an IC50 of 33 µg/mL (≈ 157 µM).
The same measure, in the same setting: for `CCCCC(=O)c1c(O)cc(CCCC)oc1=O` the value was 24 µg/mL (≈ 95.1 µM).
Molecule `CCCCCCCc1c(O)cc(CCCCCC)oc1=O` had an IC50 of 0.04 µg/mL (≈ 0.136 µM).
Molecule `CCc1c(O)cc(C)oc1=O` showed an IC50 greater than 1000 µg/mL.
In turn, `CCCC(=O)c1c(O)cc(CCC)oc1=O` registered an IC50 of 46 µg/mL (≈ 205 µM).
`CCCCCc1c(O)cc(CCCC)oc1=O` registered a half-maximal inhibitory concentration (IC50) of 4.6 µg/mL (≈ 19.3 µM).
In turn, `CCCCCCCCc1c(O)cc(CCCCCCC)oc1=O` displayed an IC50 greater than 1000 µg/mL.
Regarding `CCCc1c(O)cc(CC)oc1=O`, half-maximal inhibition (IC50) required 244 µg/mL (≈ 1340 µM).
Still for that read-out and setting: as for `CCCCCCCCCc1c(O)cc(CCCCCCCC)oc1=O`, the figure is greater than 1000 µg/mL; as for `CCC(=O)c1c(O)cc(CC)oc1=O`, 116 µg/mL (≈ 591 µM).
The molecule `CCCCCCC(=O)c1c(O)cc(CCCCCC)oc1=O` returned an IC50 of 1.5 µg/mL (≈ 4.86 µM).
`CCCCCCc1c(O)cc(CCCCC)oc1=O` registered a 50% inhibitory concentration (IC50) of 2.4 µg/mL (≈ 9.01 µM).
`CCCCCCCCC(=O)c1c(O)cc(CCCCCCCC)oc1=O`: the IC50 is greater than 1000 µg/mL.
Regarding `CCCCCC(=O)c1c(O)cc(CCCCC)oc1=O`, the IC50 stood at 3.8 µg/mL (≈ 13.6 µM).
`CCCCCCCc1cc(O)c(CCCCCC)c(=O)o1` [PSEUDOPYRONINES B] returned an IC50 of 0.1 µg/mL (≈ 0.34 µM).
